In patent publication US4288439A, “Anti-ulcer treatment method” (priority 1978, dated 1981):

Columns and labels:
[1] = anti-secretory activity test (Shay et al); type: in vivo
Experimental: (§1) Anti-ulcer activity was determined by the stress-induced erosion test of Senay & Levine, Proc. Soc. Exp. Biol. Med., 124, 1221-3(1967) and anti-secretory activity by the test of H. Shay, D. Sun and H. Greenstein, Gastroenterology, 1954, 26,903-13 as exemplified by Beattie et al in J. Med Chem, 20,714 (1977).

[2] = stress-induced erosion test (Senay & Levine), anti-ulcer activity; type: in vivo; details: Dose 100 mg/kg
Experimental: as §1

SMILES | Anti-Secretory (Shay et al) % change in volt ([1]; Dose 10 mg/kg) [%] | Anti-Secretory (Shay et al) % change in volt ([1]; Dose 30 mg/kg) [%] | Stress Induced erosion (Senay & Levine) % inhibition [2] [%]
C[n+]1ccccc1SCSc1cccc[n+]1C [Example 1, Methylene bis((1-methylpyridinium-2-yl)-thio) diiodide] | -32 | -62 | 71
C[n+]1ccccc1SCCSc1cccc[n+]1C [Example 2, 1,2-Di-((1-methylpyridinium-2-yl)thio)ethane dibromide] | – | -48 | 67
